Assays:
[1] = test system: HμRELhumanPool 96-well hepatic co-culture; assay: Hμrel Low Clearance Assay; format: in vitro ADME, human; parameters: % of Control (intrinsic clearance relative to the control compound): tested at 1 µM; conditions: for Half-Life: human hepatic co-culture, 1 μM substrate, 0-72 hr incubation; for % of Control (intrinsic clearance relative to the control compound): observed CLint divided by average CLint of undeuterated control compound
Protocol: (§1) The Hμrel Low Clearance Assay was performed to determine the stability of deuterated compounds described herein and calculate changes in clearance relative to the control compound (undeuterated compound) that has the following structure:
(§2) HμRELhumanPool™ 96-well hepatic co-culture plates were media changed and cells were allowed to acclimatize at 37° C. for 20 hr. HμREL® incubation media (serum free) and test compound diluted from a 1000×DMSO stock (final substrate concentration 1 μM; final DMSO concentration 0.1%) were added to the HμREL© 96-well co-culture system at a final cell number of 30,000 cells per well to initiate the reaction. The final incubation volume was 80 μL per time point and two control compounds were included for reference (ketoprofen and prednisolone). All clearance assessments were performed in singlicate with the exception of the undeuterated control compound, which was tested in duplicate on two separate days for a total of 4 replicates. Each compound was incubated for 0, 2, 6, 24, 48 and 72 hr. The reactions were terminated by transferring 60 μL of incubate to 180 μL acetonitrile containing internal standard at the appropriate time points. The crash plates were centrifuged at 3000 rpm at 4° C. for 20 min to precipitate residual protein. Following protein precipitation, sample supernatants were combined in cassettes of up to 4 compounds and analyzed using generic LCMS/MS conditions.
(§3) LC-MS/MS chromatograms were analyzed by peak area ratio (test article peak area/internal standard peak area) and natural log transformed, and plotted against time. The slope of the line was determined to calculate elimination rate constant. Subsequently, half-life (t1/2) and intrinsic clearance (CLint) were calculated using the following equations: […]
(§4) Average clearance of the control compound was determined by taking the geometric mean of 3 of the four replicates. The fourth replicate was excluded from the average determination as an outlier.

[2] = Hμrel Low Clearance Assay; format: in vitro ADME, human; parameters: % of Control (intrinsic clearance relative to the control compound): tested at 1 µM; conditions: HμRELhumanPool 96-well hepatic co-culture, human hepatic co-culture, 1 μM substrate, 0-72 hr incubation, control = geometric mean of 3 replicates
Protocol: as §1, §2, §3, §4

[3] = biological target: T1, Recombinant CYP3A4 Supersomes (Homo sapiens, UniProt P08684); assay: Recombinant CYP3A4 Clearance Assay; format: in vitro ADME; conditions: for % of Control (intrinsic clearance relative to the control compound): observed CLint divided by average CLint of undeuterated control compound; for Half-Life / CLint: recombinant CYP3A4 50 pmol/mL, 1 μM substrate, NADPH; for Half-Life: 0-120 minutes; for CLint: control = geometric mean of 3 replicates
T1 construct: purchased
Protocol: The CYP3A4 Clearance Assay was performed to determine the stability of deuterated compounds described herein and calculate changes in clearance relative to the control compound (undeuterated compound) that has the following structure:
Recombinant CYP3A4 Supersomes were prepared in 100 mM potassium phosphate buffer (50 pmol/mL final recombinase) and 80 μL aliquots were delivered per well to 96-well reaction plates containing 10 μL/well stock working solution containing substrate at 10× final concentration in 0.1:9.9:90 DMSO:ACN:100 mM phosphate buffer. Final substrate concentration during incubation was 1 μM. Reaction mixtures were pre-incubated at 37° C. for 10 minutes, prior to addition of 10 μL/well of NADPH regenerating system to initiate the reaction (β-Nicotinamide adenine dinucleotide phosphate) or 100 mM phosphate as a buffer control.
Clearance assessments were performed for test compounds in singlicate except for the control compound, which was tested in triplicate. Incubations were maintained at 37° C. for 0, 5, 15, 30, 45, 60, 90, and 120 minutes (or 0 and 120 minutes for buffer control). The reactions were terminated with 3× volume of cold (4° C.) acetonitrile (ACN) containing 200 ng/mL tolbutamide and 200 ng/mL labetalol as internal standards (IS). The crash plates were centrifuged at 4000 rpm at 4° C. for 20 min to precipitate residual protein. Following protein precipitation, sample supernatants were harvested and 3× volume of HPLC grade water was added to each sample for chromatography purposes. Plates were sealed and shaken for 10 minutes prior to LC-MS/MS analysis using generic LCMS/MS conditions.
as §3
Average intrinsic clearance of the control compound was determined by taking the geometric mean of 3 replicates.

T1 sequence (P08684 whole entry): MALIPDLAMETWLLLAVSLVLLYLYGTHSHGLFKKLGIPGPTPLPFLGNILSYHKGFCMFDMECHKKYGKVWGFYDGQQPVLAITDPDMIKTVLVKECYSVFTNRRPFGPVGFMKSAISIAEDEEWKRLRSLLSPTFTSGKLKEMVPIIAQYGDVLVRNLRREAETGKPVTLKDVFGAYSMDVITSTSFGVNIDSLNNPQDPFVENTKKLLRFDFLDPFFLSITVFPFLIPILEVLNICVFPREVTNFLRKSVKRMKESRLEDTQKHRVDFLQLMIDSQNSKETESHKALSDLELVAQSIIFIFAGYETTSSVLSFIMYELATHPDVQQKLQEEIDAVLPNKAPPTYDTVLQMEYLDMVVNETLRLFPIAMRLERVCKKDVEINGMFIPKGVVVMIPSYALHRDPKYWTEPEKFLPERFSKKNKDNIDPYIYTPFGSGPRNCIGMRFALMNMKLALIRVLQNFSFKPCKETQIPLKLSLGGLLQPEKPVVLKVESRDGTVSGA

SMILES | Half-Life [1] [h] | % of Control (intrinsic clearance relative to the control compound) [1] [%] | hepatocyte CLint at 1 μM ([2]; human) [µL/min/1e6 cells] | % of Control (intrinsic clearance relative to the control compound) [3] [%] | Half-Life [3] [h] | CLint [3] [µL/min/pmol] | hepatocyte CLint at 1 μM [2] [µL/min/1e6 cells]
[2H]C1([2H])CC(CNC(=O)c2cc(F)cc(Cl)c2)CC([2H])([2H])N1CC(=O)NC(C)(C)C [Compound 2, N-[[1-[2-(tert-butylamino)-2-oxo-ethyl]-2,2,6,6-tetradeuterio-4-piperidyl]methyl]-3-chloro-5-fluoro-benzamide] | 25.5 | 85.5 | – | 68.5 | 0.192 | 1.21 | 1.21
[2H]C1([2H])CN(CC(=O)NC(C)(C)C)CC([2H])([2H])C1CNC(=O)c1cc(F)cc(Cl)c1 [Compound 3, N-[[1-[2-(tert-butylamino)-2-oxo-ethyl]-3,3,5,5-tetradeuterio-4-piperidyl]methyl]-3-chloro-5-fluoro-benzamide] | 21 | 104 | 1.47 | 82.3 | 0.16 | 1.45 | –
[2H]C([2H])(NC(=O)c1cc(F)cc(Cl)c1)C1CCN(CC(=O)NC(C([2H])([2H])[2H])(C([2H])([2H])[2H])C([2H])([2H])[2H])CC1 [Compound 5, 3-chloro-N-[dideuterio-[1-[2-oxo-2-[[2,2,2-trideuterio-1,1-bis(trideuteriomethyl)ethyl]amino]ethyl]-4-piperidyl]methyl]-5-fluoro-benzamide] | 23.33 | 93.3 | 1.32 | 94.1 | 0.14 | 1.66 | –
[2H]C([2H])([2H])C(C)(C)NC(=O)CN1CCC(CNC(=O)c2cc(F)cc(Cl)c2)CC1 [Compound 7, 3-chloro-5-fluoro-N-[[1-[2-oxo-2-[(2,2,2-trideuterio-1,1-dimethyl-ethyl)amino]ethyl]-4-piperidyl]methyl]benzamide] | 21.83 | 99.6 | 1.41 | 100 | 0.132 | 1.76 | –
[2H]C1([2H])CN(CC(=O)NC(C([2H])([2H])[2H])(C([2H])([2H])[2H])C([2H])([2H])[2H])CC([2H])([2H])C1CNC(=O)c1cc(F)cc(Cl)c1 [Compound 8, 3-chloro-5-fluoro-N-[[3,3,5,5-tetradeuterio-1-[2-oxo-2-[[2,2,2-trideuterio-1,1-bis(trideuteriomethyl)ethyl]amino]ethyl]-4-piperidyl]methyl]benzamide] | 24 | 90.5 | 1.28 | 88.4 | 0.148 | 1.56 | –
[2H]C([2H])([2H])C(NC(=O)CN1C([2H])([2H])C([2H])([2H])C([2H])(CNC(=O)c2cc(F)cc(Cl)c2)C([2H])([2H])C1([2H])[2H])(C([2H])([2H])[2H])C([2H])([2H])[2H] [Compound 12, 3-chloro-5-fluoro-N-[[2,2,3,3,4,5,5,6,6-nonadeuterio-1-[2-oxo-2-[[2,2,2-trideuterio-1,1-bis(trideuteriomethyl)ethyl]amino]ethyl]-4-piperidyl]methyl]benzamide] | 45.5 | 47.8 | 0.676 | 60.3 | 0.218 | 1.06 | –
[2H]C([2H])([2H])C(C)(NC(=O)CN1CCC(CNC(=O)c2cc(F)cc(Cl)c2)CC1)C([2H])([2H])[2H] [Compound 14, 3-chloro-5-fluoro-N-[[1-[2-oxo-2-[[2,2,2-trideuterio-1-methyl-1-(trideuteriomethyl)ethyl]amino]ethyl]-4-piperidyl]methyl]benzamide] | 34.83 | 62.5 | 0.885 | 105 | 0.125 | 1.85 | –

More lines, main results first:

Half-Life [1] [h] | % of Control (intrinsic clearance relative to the control compound) [1] [%] | hepatocyte CLint at 1 μM ([2]; human) [µL/min/1e6 cells] | % of Control (intrinsic clearance relative to the control compound) [3] [%] | Half-Life [3] [h] | CLint [3] [µL/min/pmol] | SMILES | hepatocyte CLint at 1 μM [2] [µL/min/1e6 cells]
57.17 | 38.1 | 0.539 | 65.3 | 0.202 | 1.15 | [2H]C1([2H])N(CC(=O)NC(C)(C)C)C([2H])([2H])C([2H])([2H])C([2H])(CNC(=O)c2cc(F)cc(Cl)c2)C1([2H])[2H] [Compound 1, N-[[1-[2-(tert-butylamino)-2-oxo-ethyl]-2,2,3,3,4,5,5,6,6-nonadeuterio-4-piperidyl]methyl]-3-chloro-5-fluoro-benzamide] | –
20.5 | 106 | 1.5 | 98.6 | 0.133 | 1.74 | [2H]C([2H])(NC(=O)c1cc(F)cc(Cl)c1)C1CCN(CC(=O)NC(C)(C)C)CC1 [Compound 4, N-[[1-[2-(tert-butylamino)-2-oxo-ethyl]-4-piperidyl]-dideuterio-methyl]-3-chloro-5-fluoro-benzamide] | –
21.83 | 99.6 | 1.41 | 77.2 | 0.17 | 1.36 | [2H]C([2H])(C(=O)NC(C)(C)C)N1CCC(CNC(=O)c2cc(F)cc(Cl)c2)CC1 [Compound 6, N-[[1-[2-(tert-butylamino)-1,1-dideuterio-2-oxo-ethyl]-4-piperidyl]methyl]-3-chloro-5-fluoro-benzamide] | –
26.17 | 83.4 | 1.18 | 76.6 | 0.172 | 1.35 | [2H]C1([2H])CN(CC(=O)NC(C)(C)C([2H])([2H])[2H])CC([2H])([2H])C1CNC(=O)c1cc(F)cc(Cl)c1 [Compound 9, 3-chloro-5-fluoro-N-[[3,3,5,5-tetradeuterio-1-[2-oxo-2-[(2,2,2-trideuterio-1,1-dimethyl-ethyl)amino]ethyl]-4-piperidyl]methyl]benzamide] | –
33.83 | 64.3 | 0.91 | 81.1 | 0.162 | 1.43 | [2H]C([2H])(NC(=O)c1cc(F)cc(Cl)c1)C1CCN(CC(=O)NC(C)(C)C([2H])([2H])[2H])CC1 [Compound 10, 3-chloro-N-[dideuterio-[1-[2-oxo-2-[(2,2,2-trideuterio-1,1-dimethyl-ethyl)amino]ethyl]-4-piperidyl]methyl]-5-fluoro-benzamide] | –

Source: US20240025852A1, “T-TYPE CALCIUM CHANNEL MODULATORS AND METHODS OF USE THEREOF” (PRAXIS PRECISION MEDICINES, INC., priority 2020, published 2024)
